Experimental data from paper PMC3071879 (Journal of the American Chemical Society, 2011).

Assays:
Assay type in all cases: biochemical
PacW = target: T1, PacW (Streptomyces coeruleorubidus, UniProt F5BFC7); test: ATP-[…]PPi exchange; conditions: adenylation, DL mixture used
T1 sequence (F5BFC7 1-507): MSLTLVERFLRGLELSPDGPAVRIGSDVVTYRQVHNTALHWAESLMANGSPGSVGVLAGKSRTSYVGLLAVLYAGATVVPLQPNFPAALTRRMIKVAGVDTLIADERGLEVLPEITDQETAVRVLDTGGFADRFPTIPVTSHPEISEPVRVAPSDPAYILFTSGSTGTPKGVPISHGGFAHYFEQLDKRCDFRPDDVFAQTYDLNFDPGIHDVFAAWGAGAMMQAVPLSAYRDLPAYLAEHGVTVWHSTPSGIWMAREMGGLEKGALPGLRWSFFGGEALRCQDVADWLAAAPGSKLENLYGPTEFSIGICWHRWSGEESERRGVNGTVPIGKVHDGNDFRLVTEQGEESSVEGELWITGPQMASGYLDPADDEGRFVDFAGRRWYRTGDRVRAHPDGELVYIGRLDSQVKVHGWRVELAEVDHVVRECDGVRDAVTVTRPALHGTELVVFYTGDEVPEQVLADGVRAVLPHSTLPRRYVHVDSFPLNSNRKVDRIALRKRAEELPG

PacV = PacV (Streptomyces coeruleorubidus, UniProt E2EKQ4); test: SDS-PAGE autoradiography of […]-methyl transfer; conditions: methyl acceptor DABA tethered to holo-PacP; labelled compound
Sequence of PacV (E2EKQ4 1-250): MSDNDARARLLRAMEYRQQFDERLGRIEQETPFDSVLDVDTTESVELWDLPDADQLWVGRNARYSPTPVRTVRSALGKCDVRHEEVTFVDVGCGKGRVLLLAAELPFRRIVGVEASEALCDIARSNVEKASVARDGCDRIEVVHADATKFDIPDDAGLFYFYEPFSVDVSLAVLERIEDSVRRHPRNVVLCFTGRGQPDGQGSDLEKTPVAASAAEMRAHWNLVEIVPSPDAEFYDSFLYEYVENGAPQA

PacU = target: T2, PacU (Streptomyces coeruleorubidus, UniProt E2EKQ3); test: ATP-[…]PPi exchange; conditions: adenylation
T2 sequence (E2EKQ3 1-507): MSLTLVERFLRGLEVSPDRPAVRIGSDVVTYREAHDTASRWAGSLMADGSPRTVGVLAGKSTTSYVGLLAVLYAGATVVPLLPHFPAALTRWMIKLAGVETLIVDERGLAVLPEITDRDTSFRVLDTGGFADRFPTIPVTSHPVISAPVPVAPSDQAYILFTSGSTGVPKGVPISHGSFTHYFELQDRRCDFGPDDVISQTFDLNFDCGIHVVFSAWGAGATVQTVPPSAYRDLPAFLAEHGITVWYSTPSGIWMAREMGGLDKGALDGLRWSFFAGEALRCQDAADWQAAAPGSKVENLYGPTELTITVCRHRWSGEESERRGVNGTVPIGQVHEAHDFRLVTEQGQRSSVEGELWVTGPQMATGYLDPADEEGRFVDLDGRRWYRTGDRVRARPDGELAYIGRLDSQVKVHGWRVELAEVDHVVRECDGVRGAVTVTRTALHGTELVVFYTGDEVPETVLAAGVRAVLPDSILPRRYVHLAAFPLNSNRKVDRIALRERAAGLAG

PacP = target: T3, PacP (Streptomyces coeruleorubidus, UniProt E2EKP8); test: ATP-[…]PPi exchange; conditions: adenylation
T3 sequence (E2EKP8 1-848): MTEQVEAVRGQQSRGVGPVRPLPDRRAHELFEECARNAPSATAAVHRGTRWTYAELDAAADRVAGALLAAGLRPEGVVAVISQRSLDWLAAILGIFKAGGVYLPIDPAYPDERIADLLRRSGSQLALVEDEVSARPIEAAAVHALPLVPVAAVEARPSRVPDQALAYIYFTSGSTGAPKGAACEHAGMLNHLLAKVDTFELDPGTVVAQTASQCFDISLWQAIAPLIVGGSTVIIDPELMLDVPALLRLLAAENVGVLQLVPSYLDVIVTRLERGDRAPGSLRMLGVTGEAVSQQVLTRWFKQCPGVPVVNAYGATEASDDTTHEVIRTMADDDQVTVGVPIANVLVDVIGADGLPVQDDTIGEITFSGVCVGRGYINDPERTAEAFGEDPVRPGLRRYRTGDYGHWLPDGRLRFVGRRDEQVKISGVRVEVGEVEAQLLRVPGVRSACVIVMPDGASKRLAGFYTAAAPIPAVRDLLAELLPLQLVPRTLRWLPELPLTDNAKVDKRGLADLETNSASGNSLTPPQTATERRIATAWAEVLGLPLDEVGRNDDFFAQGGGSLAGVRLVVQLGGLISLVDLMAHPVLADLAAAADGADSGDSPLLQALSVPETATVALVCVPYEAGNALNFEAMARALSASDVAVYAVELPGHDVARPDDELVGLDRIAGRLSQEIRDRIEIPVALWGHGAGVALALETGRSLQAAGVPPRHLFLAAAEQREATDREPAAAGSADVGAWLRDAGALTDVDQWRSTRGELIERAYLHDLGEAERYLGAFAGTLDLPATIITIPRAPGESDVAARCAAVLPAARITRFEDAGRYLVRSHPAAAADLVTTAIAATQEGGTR

## NC(Cc1cccc(O)c1)C(=O)O (racemic) [m-Tyr]
PacW
  ATP-[32P]PPi exchange: demonstrated a strong preference for the activation of m-Tyr over other aromatic amino acids

## C[S+](CC[C@H](N)C(=O)O)C[C@H]1O[C@@H](n2cnc3c(N)ncnc32)[C@H](O)[C@@H]1O (stereo partly shown) [S-adenosylmethionine]
PacV
  SDS-PAGE autoradiography of 14C-methyl transfer: PacV indeed transferred the methyl group from S-adenosylmethionine (SAM) to holo-PacP

## C[C@H](N)C(=O)O [L-Ala]
PacU
  ATP-[32P]PPi exchange: exhibited a strong preference toward reversible formation of L-Ala-AMP

## C[C@H](N)[C@H](N)C(=O)O [2S,3S-DABA]
PacP
  ATP-[32P]PPi exchange: PacP exhibited a preference toward reversible formation of 2S,3S-DABA-AMP
